Data as given in patent publication US20030055107A1, “Forms of pharmaceutically active agents and method for manufacture thereof” (priority 2001, published 2003).

Key:
[1] = Dynamic Vapor Sorption Moisture Balance, relative weight gain due to moisture pickup; format: physicochemical; details: for critical humidity: cycled between 0% RH to 95% RH to 0% RH over 48 hours at 25° C.
Description: Samples were cycled between 0% RH to 95% RH to 0% RH over 48 hours at 25° C. […] At 50% humidity, the relative weight gain due to moisture pickup was about 25% while at 70% humidity the relative weight gain was about 35%. […] At 50% humidity the relative weight gain due to moisture pickup was about 1.4% and at 70% humidity the weight gain was bout 2%.

[2] = cited from earlier work
[3] = Dissolution of dried new form in water (observation); format: physicochemical; details: dried form with potassium cation placed in water
Excerpt: The new ibuprofen form of the present invention dissociates into ibuprofen in its free acid form.

For `CC(C)Cc1ccc(C(C)C(=O)O)cc1.[K]` (stereo not shown) [potassium ibuprofen], the “physical change of sample during humidity cycling” value ([1]; 0-95% RH cycle, 25° C.) is given as “the sample dissolved and formed a gel”, the critical humidity [1] is given as “about 30%” and the “solubility (in words)” value ([2]; background statement) is given as “highly soluble”.

For `CO[C@@H]1[C@@H](OC(N)=O)[C@@H](O)[C@H](Oc2ccc3c(O)c(NC(=O)c4ccc(O)c(CC=C(C)C)c4)c(=O)oc3c2C)OC1(C)C` [novobiocin], the “solubility of amorphous substance versus crystalline agent” value ([2]; amorphous vs crystalline, Mullins and Macek 1960) is given as “ten times higher”.

For `CC(C)Cc1ccc(C(C)C(=O)O)cc1.CC(C)Cc1ccc(C(C)C(=O)[O-])cc1.[K+]` (stereo not shown) [new ibuprofen form], the “hygroscopicity compared to the potassium salt of ibuprofen” value ([1]; 0-95% RH cycle, 25° C.) was “significantly less hygroscopic”, the “physical change of sample during humidity cycling” value ([1]; 0-95% RH cycle, 25° C.) was “No change in crystal appearance was observed” and the critical humidity [1] was “about 30%”. For the same molecule, the “dissolution in water (in words)” value [3] was “readily dissolves in water” and the “dissolution in water (in words)” value ([3]; listed as ibuprofen form of the present invention wherein the cation is potassium) was “immediate dissolution”.

In the case of `CC(C)Cc1ccc(C(C)C(=O)O)cc1` (racemic) [Ibuprofen, ibuprofen], the solubility in water ([2]; water) is listed as < 100 µg/mL.
